26 compounds from patent publication US10702521B2, “Methods for treating neisseria gonorrhoeae infection with substituted 1,2-dihydro-2A,5,8A-triazaacenaphthylene-3,8-diones” (priority 2014, dated 2020) can be followed below.

Where a name gives a salt, the structure may show the parent alone. Read-outs that look alike come from different tables or passages of the source.

This assay deals with Mycobacterium tuberculosis H37Rv. Nature of the assay: Mycobacterium tuberculosis H37Rv Inhibition Assay (resazurin MIC). It counts as cell-based.
Setting [1] is: 144 h, H37Rv strain, six days incubation, resazurin fluorescence after 48 hours, read-out: MIC value.
The mark [2] stands for this setting: read-out: MIC value, H37Rv strain, six days incubation, resazurin fluorescence after 48 hours.
Setting [3] is: H37Rv strain, six days incubation, resazurin fluorescence after 48 hours, read-out: MIC value.
Setting [4] is: 144 h, read-out: MIC value, H37Rv strain, six days incubation, resazurin fluorescence after 48 hours.

Regarding `Cl.O=c1ccc2ncc(=O)n3c2n1C[C@H]3CN1CCC(NCc2cc3c(cn2)OCCS3)CC1` [Example 19A, (2R)-2-({4-[(2,3-Dihydro[1,4]oxathiino[2,3-c]pyridin-7-ylmethyl)amino]-1-piperidinyl}methyl)-1,2-dihydro-3H,8H-2a,5,8a-triazaacenaphthylene-3,8-dione hydrochloride], the MIC under setting [1] was less than 2 µg/mL. As for `O=c1ccc2ccc(=O)n3c2n1C[C@H]3CN1CCC(NCc2ccc3c(c2)OCCO3)CC1` [Example 30, (1R)-1-({4-[(2,3-Dihydro-1,4-benzodioxin-6-ylmethyl)amino]-1-piperidinyl}methyl)-1,2-dihydro-4H,9H-imidazo[1,2,3-ij]-1,8-naphthyridine-4,9-dione hydrochloride], the MIC under setting [1] is less than 2 µg/mL. Take `O=c1ccc2ccc(=O)n3c2n1CC3CN1CCC(NCc2cc3c(cn2)OCS3)CC1` (centres unmarked) [Example 2, 1-({4-[([1,3]Oxathiolo[5,4-c]pyridin-6-ylmethyl)amino]-1-piperidinyl}methyl)-1,2-dihydro-4H,9H-imidazo[1,2,3-ij]-1,8-naphthyridine-4,9-dione hydrochloride]: the MIC under setting [2] is less than 2 µg/mL. For the compound `O=c1ccc2ccc(=O)n3c2n1CC3CN1CCC(NCc2cc3c(cn2)OCCS3)CC1` (racemic) [Example 63], the MIC under setting [3] was less than 2 µg/mL. For `O=c1cnc2ccc(=O)n3c2n1C[C@H]3CN1CCC(NCc2cc3c(cn2)OCCS3)CC1` [Example 14, (1R)-1-({4-[(2,3-Dihydro[1,4]oxathiino[2,3-c]pyridin-7-ylmethyl)amino]-1-piperidinyl}methyl)-1,2-dihydro-3H,8H-2a,5,8a-triazaacenaphthylene-3,8-dione hydrochloride], the MIC under setting [4] is less than 2 µg/mL. Turning to `O=c1ccc2ccc(CNC3CCN(C[C@@H]4Cn5c(=O)ccc6ccc(=O)n4c65)CC3)cc2o1` [Example 59, (1R)-1-[(4-{[(2-Oxo-2H-chromen-7-yl)methyl]amino}-1-piperidinyl)methyl]-1,2-dihydro-4H,9H-imidazo[1,2,3-ij]-1,8-naphthyridine-4,9-dione], the MIC under setting [3] was less than 2 µg/mL.

As for `O=C1CSc2cnc(CNC3CCN(C[C@@H]4Cn5c(=O)ccc6ccc(=O)n4c65)CC3)nc2N1` [Example 34, (1R)-1-[(4-{[(7-Oxo-6,7-dihydro-1H-pyrimido[5,4-b][1,4]thiazin-2-yl)methyl]amino}-1-piperidinyl)methyl]-1,2-dihydro-4H,9H-imidazo[1,2,3-ij]-1,8-naphthyridine-4,9-dione dihydrochloride], under setting [2], the MIC was less than 2 µg/mL. Still for that read-out and setting: next, `O=c1ccc2ncc(=O)n3c2n1CC3CN1CCC(NCc2cc3c(cn2)OCCS3)CC1` (centres unmarked) [Example 20, 2-({4-[(2,3-Dihydro[1,4]oxathiino[2,3-c]pyridin-7-ylmethyl)amino]-1-piperidinyl}methyl)-1,2-dihydro-3H,8H-2a,5,8a-triazaacenaphthylene-3,8-dione hydrochloride]: less than 2 µg/mL.

As to `O=c1ccc2ncc(=O)n3c2n1C[C@H]3CN1CCC(NCc2ccc3c(c2)OCCO3)CC1` [Example 40, (2R)-2-({4-[(2,3-Dihydro-1,4-benzodioxin-6-ylmethyl)amino]-1-piperidinyl}methyl)-1,2-dihydro-3H,8H-2a,5,8a-triazaacenaphthylene-3,8-dione hydrochloride], the MIC under setting [4] was less than 2 µg/mL.

On to `O=c1ccc2ccc(=O)n3c2n1C[C@H]3CN1CCC(NCc2cc3c(cn2)OCS3)CC1` [Example 5A, (1R)-1-({4-[([1,3]Oxathiolo[5,4-c]pyridin-6-ylmethyl)amino]-1-piperidinyl}methyl)-1,2-dihydro-4H,9H-imidazo[1,2,3-ij]-1,8-naphthyridine-4,9-dione hydrochloride], for which the MIC under setting [4] was less than 2 µg/mL.

`O=c1ccc2ncc(=O)n3c2n1C[C@H]3CN1CCC(NCc2cc3c(cc2F)OCCO3)CC1` [Example 26, (2R)-2-[(4-{[(7-Fluoro-2,3-dihydro-1,4-benzodioxin-6-yl)methyl]amino}-1-piperidinyl)methyl]-1,2-dihydro-3H,8H-2a,5,8a-triazaacenaphthylene-3,8-dione hydrochloride]: the MIC under setting [4] was no more than 1 µg/mL. Take `Cl.Cl.O=C1COc2cc(Cl)c(CNC3CCN(C[C@@H]4Cn5c(=O)ccc6ccc(=O)n4c65)CC3)nc2N1` [Example 32, (1R)-1-[(4-{[(7-Chloro-3-oxo-3,4-dihydro-2H-pyrido[3,2-b][1,4]oxazin-6-yl)methyl]amino}-1-piperidinyl)methyl]-1,2-dihydro-4H,9H-imidazo[1,2,3-ij]-1,8-naphthyridine-4,9-dione dihydrochloride]: under setting [1], the MIC was less than 2 µg/mL. Take `O=c1ccc2ccc(=O)n3c2n1C[C@H]3CN1CCC(NCc2cc3c(cn2)OCCS3)CC1` [Example 6A, (1R)-1-({4-[(2,3-Dihydro[1,4]oxathiino[2,3-c]pyridin-7-ylmethyl)amino]-1-piperidinyl}methyl)-1,2-dihydro-4H,9H-imidazo[1,2,3-ij]-1,8-naphthyridine-4,9-dione hydrochloride]: the MIC under setting [2] was less than 2 µg/mL. `O=c1cnc2ccc(=O)n3c2n1C[C@H]3CN1CCC(NCc2cc3c(cn2)OCCC3)CC1` [Example 37, (1R)-1-({4-[(3,4-Dihydro-2H-pyrano[2,3-c]pyridin-6-ylmethyl)amino]-1-piperidinyl}methyl)-1,2-dihydro-3H,8H-2a,5,8a-triazaacenaphthylene-3,8-dione hydrochloride]: under setting [4], the MIC is less than 2 µg/mL. Still for that read-out and setting: next, `O=c1ccc2ncc(=O)n3c2n1C[C@H]3CN1CCC(NCc2ccc3nsnc3c2)CC1` [Example 25, (2R)-2-({4-[(2,1,3-Benzothiadiazol-5-ylmethyl)amino]-1-piperidinyl}methyl)-1,2-dihydro-3H,8H-2a,5,8a-triazaacenaphthylene-3,8-dione hydrochloride]: no more than 1 µg/mL. Regarding `CC1(NCc2cc3c(cn2)OCS3)CCN(C[C@@H]2Cn3c(=O)ccc4ccc(=O)n2c43)CC1.Cl` [Example 24, (1R)-1-({4-Methyl-4-[([1,3]oxathiolo[5,4-c]pyridin-6-ylmethyl)amino]-1-piperidinyl}methyl)-1,2-dihydro-4H,9H-imidazo[1,2,3-ij]-1,8-naphthyridine-4,9-dione hydrochloride], the MIC under setting [3] was less than 2 µg/mL. On to `O=c1ccc2ccc(=O)n3c2n1C[C@H]3CN1CCC(NCc2cc(F)c3c(c2)OCCO3)CC1` [Example 31, (1R)-1-[(4-{[(8-Fluoro-2,3-dihydro-1,4-benzodioxin-6-yl)methyl]amino}-1-piperidinyl)methyl]-1,2-dihydro-4H,9H-imidazo[1,2,3-ij]-1,8-naphthyridine-4,9-dione hydrochloride], for which the MIC under setting [1] is less than 2 µg/mL. On to `Cl.N#Cc1cc(CNC2CCN(C[C@@H]3Cn4c(=O)ccc5ncc(=O)n3c54)CC2)cc2c1OCCO2` [Example 42, 7-{[(1-{[(2R)-3,8-Dioxo-1,2-dihydro-3H,8H-2a,5,8a-triazaacenaphthylen-2-yl]methyl}-4-piperidinyl)amino]methyl}-2,3-dihydro-1,4-benzodioxin-5-carbonitrile hydrochloride], for which, under setting [3], the MIC is less than 2 µg/mL. Consider `N#Cc1cc(CNC2CCN(C[C@@H]3Cn4c(=O)cnc5ccc(=O)n3c54)CC2)cc2c1OCCO2` [Example 56, 7-{[(1-{[(1R)-3,8-Dioxo-1,2-dihydro-3H,8H-2a,5,8a-triazaacenaphthylen-1-yl]methyl}-4-piperidinyl)amino]methyl}-2,3-dihydro-1,4-benzodioxin-5-carbonitrile hydrochloride], for which the MIC under setting [4] is less than 2 µg/mL. For `O=C1CSc2ccc(CNC3CCN(CC4Cn5c(=O)ccc6ccc(=O)n4c65)CC3)cc2N1` (racemic) [Example 12, 1-[(4-{[(3-Oxo-3,4-dihydro-2H-1,4-benzothiazin-6-yl)methyl]amino}-1-piperidinyl)methyl]-1,2-dihydro-4H,9H-imidazo[1,2,3-ij]-1,8-naphthyridine-4,9-dione hydrochloride (2:1 mixture of R:S)], the MIC under setting [1] is less than 2 µg/mL. On to `O=c1ccc2ccc(=O)n3c2n1C[C@H]3CN1CCC(NCc2cc3c(cn2)CCCC3)CC1` [Example 7, (1R)-1-({4-[(5,6,7,8-Tetrahydro-3-isoquinolinylmethyl)amino]-1-piperidinyl}methyl)-1,2-dihydro-4H,9H-imidazo[1,2,3-ij]-1,8-naphthyridine-4,9-dione hydrochloride], for which, under setting [4], the MIC is less than 2 µg/mL. Same read-out and setting: next, `O=c1ccc2ccc(=O)n3c2n1C[C@H]3CN1CCC(NCc2ccc3c(c2)OCCC3)CC1` [Example 50, (1R)-1-({4-[(3,4-Dihydro-2H-chromen-7-ylmethyl)amino]-1-piperidinyl}methyl)-1,2-dihydro-4H,9H-imidazo[1,2,3-if]-1,8-naphthyridine-4,9-dione hydrochloride]: less than 2 µg/mL. Consider `CC1(NCc2cc3c(cn2)OCCS3)CCN(C[C@@H]2Cn3c(=O)ccc4ccc(=O)n2c43)CC1` [Example 23, (1R)-1-({4-[(2,3-Dihydro[1,4]oxathiino[2,3-c]pyridin-7-ylmethyl)amino]-4-methyl-1-piperidinyl}methyl)-1,2-dihydro-4H,9H-imidazo[1,2,3-ij]-1,8-naphthyridine-4,9-dione hydrochloride], for which the MIC under setting [3] is less than 2 µg/mL. In the case of `O=c1ccc2ccc(=O)n3c2n1C[C@H]3CN1CCC(NCc2cc3c(cn2)CCC3)CC1` [Example 8, (1R)-1-({4-[(6,7-Dihydro-5H-cyclopenta[c]pyridin-3-ylmethyl)amino]-1-piperidinyl}methyl)-1,2-dihydro-4H,9H-imidazo[1,2,3-ij]-1,8-naphthyridine-4,9-dione hydrochloride], the MIC under setting [4] is less than 2 µg/mL. Take `O=c1ccc2ncc(=O)n3c2n1C[C@H]3CN1CCC(NCc2cnc3nsnc3c2)CC1` [Example 49, (2R)-2-({4-[([1,2,5]Thiadiazolo[3,4-b]pyridin-6-ylmethyl)amino]-1-piperidinyl}methyl)-1,2-dihydro-3H,8H-2a,5,8a-triazaacenaphthylene-3,8-dione]: the MIC under setting [1] is less than 2 µg/mL. As to `O=c1cnc2ccc(=O)n3c2n1C[C@H]3CN1CCC(NCc2cc3c(cn2)OCS3)CC1` [Example 13A, (1R)-1-({4-[([1,3]Oxathiolo[5,4-c]pyridin-6-ylmethyl)amino]-1-piperidinyl}methyl)-1,2-dihydro-3H,8H-2a,5,8a-triazaacenaphthylene-3,8-dione hydrochloride], under setting [4], the MIC is less than 2 µg/mL.

Broadly, the MIC is the smallest concentration in the dilution series that meets the test's criterion for growth inhibition.
